Literature values, collected in patent US11866789B2, “Targeted therapies for cancer” (THE TRANSLATIONAL GENOMICS RESEARCH INSTITUTE, priority 2015, dated 2024).

Key:
[1] = test system: advanced biliary tract cancer or hepatobiliary cancer; conditions: 17 patients evaluated
[2] = test system: Cell line models expressing NRG1 fusions; conditions: See Reference 29

For `CS(=O)(=O)CCNCc1ccc(-c2ccc3ncnc(Nc4ccc(OCc5cccc(F)c5)c(Cl)c4)c3c2)o1` [Lapatinib], the objective response [1] is given as “no objective response” and the “sensitivity of NRG1 fusion cell line models” value [2] is given as “increased sensitivity”.
